These results are taken from PMC4257840 (Journal of Medicinal Chemistry, 2014).

Like-named read-outs stand apart in the source and are kept apart here.

The target in one data set is T1, Der p 1 (Dermatophagoides pteronyssinus, UniProt P08176).
T1 sequence (P08176 99-320): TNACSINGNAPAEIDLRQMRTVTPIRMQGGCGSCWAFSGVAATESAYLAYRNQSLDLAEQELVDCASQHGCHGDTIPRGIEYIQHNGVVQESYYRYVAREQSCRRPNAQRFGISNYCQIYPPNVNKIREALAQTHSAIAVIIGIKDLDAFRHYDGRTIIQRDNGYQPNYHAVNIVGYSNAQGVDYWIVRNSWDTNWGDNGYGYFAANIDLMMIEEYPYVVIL
The data set can be described thus: biochemical. Format: biochemical.

For data set [1], the system named is nonsensitized rats challenged with a natural mixture of HDM allergens. The note with it: i.t. aerosol typically 60-360 min prior to allergen challenge, unsensitised BN rats.
Another data set addresses human liver Cat B (Homo sapiens, UniProt P07858). The data set can be described thus: Cathepsin B inhibition assay. To be noted: for IC50: read-out: Cat B IC50, mean ± SE.
Data set [2] is described as follows: Measurement of LogD7.4 (n-octanol/PBS shake). Format: physicochemical. To be noted: single determination, n-octanol/PBS pH 7.4; read-out: Log D7.4. How it is done: Appendix 4. Measurement of LogD7.4
Test compounds (~1 mg) were weighed into 2 mL HPLC vials. n- Octanol (0.7 mL), pre-saturated with 10 mM phosphate buffered saline pH7.4 (PBS), was added to each vial followed b y PBS (0. 7 mL), which had been pre-saturat ed with n-octanol. The mixtures were shaken for 90 min and then centrifuged for 10 min at 4,000 rpm. The upper organic l ayer (0.2 m L) and the aqueous la yer (0.5 mL) were removed from each vial and anal yz e d b y LC -MS. Mass spect ral anal ysis was used to confirm peak identity whilst the concentration of compound was assessed by a diode arra y det ecto r. The logD for each compound was calculated b y takin g th e lo g of its concentration ratio between the oct anol and aqueous la ye r s.Given the robustness of the assa y and the fact that the info rmation was us ed onl y for gen eral guid ance, thes e measu rements were based on singlicate det erminations.

Experimental for Der p 1: Automated screening of inhibitory activity toward group 1 HDM peptidase allergens was performed as described elsewhere[25],[43] with the minor modification that Der p 1 or Der f 1 were incubated with inhibitors for 20 min prior to initiation of reactions by addition of substrate. In initial screening, the activity of each compound was measured using a series of 10 doubling dilutions from a starting concentration of 50 μM. […] Assays were performed in triplicate for calculation of mean ± SE IC50 values.
Experimental for human liver Cat B: Inhibition of Cat B was measured as described with modifications.[25] […] Progress curves were followed at 30 °C by detection of fluorescence at 320/420 nm (excitation/emission).
In all cases, for reactions involving inhibitors, the amount of reaction buffer was adjusted to 60 μL, the inhibitor added as a 10 μL aliquot, and incubated for 20 min with the enzyme prior to reaction start.

As for `CC(C)[C@H](NC(=O)[C@H](C)NC(=O)[C@@H](NC(=O)c1ccccc1)C(C)(C)C)C(=O)C(=O)NCc1ccc(C(F)(F)F)cc1` [Compound 40], the half-inhibitory concentration (IC50) against Der p 1 (mean ± SE) stood at 47 ± 7 nM.

As to `CNC(=O)c1ccc(CNC(=O)C(=O)[C@@H](NC(=O)[C@H](C)NC(=O)[C@@H](N2Cc3ccccc3C2=O)C(C)(C)C)C(C)C)cc1` [Compound 57], the results for the IC50 against Der p 1 (mean ± SE) and on human liver Cat B were 4 nM and 3570 ± 850 nM, respectively. Moreover, in data set [1], the “duration of protection: trend of inhibition of eosinophil recruitment with increasing pre-treatment interval” value is listed as “rise to a peak”.

Consider `CC(C)[C@H](NC(=O)[C@H](C)NC(=O)[C@H](Cc1ccccc1)NC(=O)c1cccc2ccccc12)C(=O)C(=O)NCC(=O)N1CCN(C)CC1` [Compound 53, Naphthalene-1-carboxylic Acid [(S)-1-((S)-1-{(S)-2-Methyl-1-[2-(4-methyl-piperazin-1-yl)-2-oxo-ethylaminooxalyl]-propylcarbamoyl}-ethylcarbamoyl)-2-phenyl-ethyl]-amide], for which the results for the IC50 against Der p 1 (mean ± SE) and on human liver Cat B were 20 ± 3 nM and 540 ± 28 nM, respectively. Further, the logD at 1.5 h in data set [2] was 2. Moreover, the “duration of protection: trend of inhibition of eosinophil recruitment with increasing pre-treatment interval” value in data set [1] was “waned”.

For the compound `CC(C)[C@H](NC(=O)[C@H](C)NC(=O)[C@H](Cc1ccccc1)NC(=O)c1ccccc1)C(=O)C(=O)NCC(=O)N1CCOCC1` [Compound 47, N-((S)-1-{(S)-1-[(S)-2-Methyl-1-(2-morpholin-4-yl-2-oxo-ethylaminooxalyl)-propylcarbamoyl]-ethylcarbamoyl}-2-phenyl-ethyl)-benzamide], the values for the IC50 at Der p 1 (mean ± SE) and at human liver Cat B were 9 ± 1 nM and 88 ± 10 nM, respectively. The logD at 1.5 h in data set [2] turned out to be 1.7. The “duration of protection: trend of inhibition of eosinophil recruitment with increasing pre-treatment interval” value in data set [1] was “rise to a peak”.

Compound `CC(C)[C@H](NC(=O)[C@H](C)NC(=O)[C@H](Cc1ccccc1)NC(=O)c1ccccc1)C(=O)C(=O)NC1CCN(C)CC1` [Compound 34] returned an IC50 at Der p 1 (mean ± SE) of 115 ± 14 nM.

Consider `CC(C)[C@H](NC(=O)[C@H](C)NC(=O)[C@H](Cc1ccccc1)NC(=O)c1ccccc1)C(=O)C(=O)NCC(=O)N1CCN(C(C)C)CC1` [Compound 49], for which the 50% inhibitory concentration (IC50) at Der p 1 (mean ± SE) was 4 ± 1 nM; on human liver Cat B, above 2500 nM. The logD at 1.5 h in data set [2] was determined as 1.6.

On Der p 1 (mean ± SE), `CCCC[C@H](NC(=O)[C@H](C)NC(=O)[C@H](Cc1ccccc1)NC(=O)c1ccccc1)C(=O)CN1CCCC1` [Compound 3] gave a 50% inhibitory concentration (IC50) of 65 nM.

On to `CC(C)[C@H](NC(=O)[C@H](C)NC(=O)[C@@H](NC(=O)c1ccccc1)C(C)(C)C)C(=O)C(=O)NCC(=O)N1CCc2ccccc2C1` [Compound 51], for which the half-inhibitory concentration (IC50) at Der p 1 was 6 nM; at human liver Cat B, 511 ± 88 nM. Moreover, the logD at 1.5 h in data set [2] turned out to be 3.5.

For `CC(C)[C@H](NC(=O)[C@H](C)NC(=O)[C@@H](NC(=O)c1ccccc1)C(C)(C)C)C(=O)C(=O)N[C@H](C)c1ccccc1` [Compound 42], the IC50 came out at 17 ± 2 nM against Der p 1 (mean ± SE) and 459 ± 28 nM on human liver Cat B.

With `CC(C)[C@H](NC(=O)[C@H](C)NC(=O)[C@@H](N1Cc2ccccc2C1=O)C(C)(C)C)C(=O)C(=O)NCc1ccc(CN(C)C)cc1` [Compound 58], the IC50 against Der p 1 (mean ± SE) amounted to 4 nM; at human liver Cat B it was 2850 ± 662 nM.

Consider `CCC[C@H](NC(=O)[C@H](Cc1ccccc1)NC(=O)c1ccccc1)C(=O)N[C@H](C(=O)C(=O)NC1CCCCC1)C(C)C` [Compound 24], for which the 50% inhibitory concentration (IC50) on Der p 1 (mean ± SE) came to 164 ± 24 nM; on human liver Cat B, 67 ± 1 nM.

Turning to `CC(C)[C@H](NC(=O)[C@H](C)NC(=O)[C@@H](NC(=O)c1ccccc1)C(C)(C)C)C(=O)C(=O)NCc1cn[nH]c1` [Compound 44], the IC50 against Der p 1 was determined as 11 ± 2 nM; on human liver Cat B it was 367 ± 34 nM.

As for `CC(C)[C@H](NC(=O)[C@H](C)NC(=O)[C@@H](NC(=O)c1ccccc1)C(C)(C)C)C(=O)C(=O)NCc1ccc(CN(C)C)cc1` [Compound 41], the figures for the IC50 on Der p 1 (mean ± SE) and on human liver Cat B were 8 ± 1 nM and 242 ± 31 nM, respectively.

In turn, `CC(C)[C@H](NC(=O)[C@H](C)NC(=O)[C@@H](NC(=O)c1ccccc1)C(C)(C)C)C(=O)C(=O)N[C@@H](C)c1ccccc1` [Compound 43] showed a 50% inhibitory concentration (IC50) against Der p 1 (mean ± SE) of 117 ± 34 nM.

Take `CC(C)[C@H](NC(=O)[C@H](C)NC(=O)[C@@H](NC(=O)c1ccccc1)C(C)(C)c1ccccc1)C(=O)C(=O)NCc1ccccc1` [Compound 23]: the concentration for half-maximal inhibition (IC50) was 42 ± 6 nM on Der p 1 (mean ± SE) and 446 ± 11 nM on human liver Cat B.

On to `CC(C)[C@H](NC(=O)[C@H](C)NC(=O)[C@@H](NC(=O)c1cccc2ccccc12)C(C)(C)C)C(=O)C(=O)NCc1ccc(S(N)(=O)=O)cc1` [Compound 59], for which the IC50 came to 4 nM against Der p 1 (mean ± SE) and 532 ± 136 nM on human liver Cat B.

For the compound `CC(C)C(NC(=O)[C@H](C)NC(=O)[C@H](Cc1ccccc1)NC(=O)c1ccccc1)C(=O)C(=O)NC1CCOCC1` (mixture of isomers) [Compound 33], the 50% inhibitory concentration (IC50) against Der p 1 (mean ± SE) came to 55 ± 4 nM; at human liver Cat B, 311 ± 6 nM.

`CC(C)[C@H](NC(=O)[C@H](C)NC(=O)[C@@H](N1Cc2ccccc2C1=O)C(C)(C)C)C(=O)C(=O)NCc1ccc(S(N)(=O)=O)cc1` [Compound 56]: the 50% inhibitory concentration (IC50) against Der p 1 (mean ± SE) is 3 nM; at human liver Cat B, 3050 ± 1130 nM.

Turning to `CC(C)[C@H](NC(=O)[C@H](C)NC(=O)[C@H](Cc1ccccc1)NC(=O)c1ccccc1)C(=O)C(=O)NCc1ccccc1` [Compound 20], the half-maximal inhibitory concentration (IC50) on Der p 1 (mean ± SE) turned out to be 12 ± 2 nM; at human liver Cat B, 50 ± 5 nM.

In the case of `CC(C)[C@H](NC(=O)[C@H](C)NC(=O)[C@@H](NC(=O)c1ccnc2ccccc12)C(C)(C)C)C(=O)C(=O)NC1CCCCC1` [Compound 26], the half-maximal inhibitory concentration (IC50) on Der p 1 (mean ± SE) came out at 13 ± 2 nM; at human liver Cat B, 628 ± 47 nM. In addition, in data set [2], the logD at 1.5 h was 3.5.

Turning to `CC(C)[C@H](NC(=O)[C@H](C)NC(=O)[C@H](Cc1ccccc1)NC(=O)c1ccccc1)C(=O)C(=O)NCC(=O)N1CCCCC1` [Compound 46], the figures for the half-maximal inhibitory concentration (IC50) against Der p 1 and at human liver Cat B were 14 ± 3 nM and 81 ± 6 nM, respectively. Moreover, in data set [2], the logD at 1.5 h was 2.6.

`CC(C)[C@H](NC(=O)[C@H](C)NC(=O)[C@@H](NC(=O)c1ccnc2ccccc12)C(C)(C)C)C(=O)C(=O)NCC(=O)N1CCN(C(C)C)CC1` [Compound 55]: the IC50 at Der p 1 (mean ± SE) is 3 nM; on human liver Cat B it was above 2500 nM.

As to `C[C@H](NC(=O)[C@H](Cc1ccccc1)NC(=O)c1ccccc1)C(=O)N[C@H](C(=O)C(=O)NC1CCCCC1)C(C)(C)C` [Compound 21], 9170 ± 880 nM corresponded to half-maximal inhibition against Der p 1 (mean ± SE) (IC50).

`CCCC[C@H](NC(=O)[C@H](C)NC(=O)[C@H](Cc1ccccc1)NC(=O)c1ccccc1)C(=O)C(=O)N1CCCC1` [Compound 4] displayed a half-maximal inhibitory concentration (IC50) at Der p 1 (mean ± SE) of 997 nM.

`Cc1n[nH]c(C)c1C(=O)N[C@H](C(=O)N[C@@H](C)C(=O)NC(C(=O)C(=O)NCc1ccccc1)C(C)C)C(C)(C)C` (mixture of isomers) [Compound 30]: the half-inhibitory concentration (IC50) against Der p 1 was found to be 67 ± 10 nM.

For the compound `CC(C)[C@H](NC(=O)[C@H](C)NC(=O)[C@@H](NC(=O)C1CCN(C)CC1)C(C)(C)C)C(=O)C(=O)NCc1ccccc1` [Compound 31], the figures for the IC50 at Der p 1 (mean ± SE) and at human liver Cat B were 19 ± 2 nM and 283 ± 50 nM, respectively.

As to `CC(C)[C@H](NC(=O)[C@H](C)NC(=O)[C@@H](NC(=O)c1ccccc1)C12CC3CC(CC(C3)C1)C2)C(=O)C(=O)NCC(=O)N1CCN(C)CC1` [Compound 54], the values for the half-inhibitory concentration (IC50) against Der p 1 (mean ± SE) and at human liver Cat B were 5 nM and above 2500 nM, respectively. Besides, the “duration of protection: trend of inhibition of eosinophil recruitment with increasing pre-treatment interval” value in data set [1] is “waned”.

Take `CC(C)[C@H](NC(=O)[C@H](C)NC(=O)[C@@H](NC(=O)c1cccc2ccccc12)C(C)(C)C)C(=O)C(=O)NC1CCCCC1` [Compound 25]: the half-maximal inhibitory concentration (IC50) against Der p 1 (mean ± SE) stood at 20 ± 3 nM; at human liver Cat B, 721 ± 35 nM. For the same compound, the logD at 1.5 h in data set [2] came out at 4.3.

Consider `CC(C)[C@H](NC(=O)[C@H](C)NC(=O)[C@@H](NC(=O)c1ccccc1)C(C)(C)C)C(=O)C(=O)NCC(=O)N1CCN(C)CC1` [Compound 48], for which the IC50 was 14 ± 2 nM at Der p 1 (mean ± SE) and above 2500 nM at human liver Cat B. In addition, the logD at 1.5 h in data set [2] is 1. Moreover, the “inhibition of Cat B” value against human liver Cat B (at 2.5 μM) is recorded as “no significant inhibition”.

For `CC(C)[C@H](NC(=O)[C@H](C)NC(=O)[C@@H](NC(=O)c1ccccc1)C(C)(C)C)C(=O)C(=O)NCc1ccc(S(N)(=O)=O)cc1` [Compound 39], the 50% inhibitory concentration (IC50) at Der p 1 (mean ± SE) was 6 ± 1 nM; on human liver Cat B, 984 ± 164 nM.

Turning to `CNC(=O)C(=O)[C@@H](NC(=O)[C@H](C)NC(=O)[C@@H](NC(=O)c1ccccc1)C(C)(C)C)C(C)C` [Compound 37], the IC50 against Der p 1 (mean ± SE) came out at 24 ± 5 nM; at human liver Cat B it was 494 ± 20 nM.

As for `CC(C)[C@H](NC(=O)[C@H](C)NC(=O)[C@@H](NC(=O)c1ccccc1)C(C)(C)C)C(=O)C(N)=O` [Compound 36], the 50% inhibitory concentration (IC50) on Der p 1 was determined as 6 ± 2 nM; at human liver Cat B, 20 ± 3 nM. In addition, the logD at 1.5 h in data set [2] was 1.7.

On to `CC(C)[C@H](NC(=O)[C@H](C)NC(=O)[C@H](Cc1ccccc1)NC(=O)c1ccccc1)C(=O)C(=O)N[C@@H](C)C(=O)N1CCN(C)CC1` [Compound 50], for which the IC50 on Der p 1 (mean ± SE) is 10 ± 1 nM; on human liver Cat B, above 2500 nM.

Usually IC50 stands for the concentration at which inhibition is half-maximal.
